Several values for one entry are separate records, joined by “and”; a condition that tells them apart may be missing. Identical values can stand only once.
Tested on: L929 cell line
Assay: Cytotoxicity MTS assay, L929 cell line
Assay type: cell-based
Conditions: for OD490 values, Mean / OD490 values, Well 1 / OD490 values, Well 2 / OD490 values, Well 3 / OD490, single wells / OD490 Mean: L929 cell line; for OD490, single wells / OD490 Mean: MTS; for OD490, single wells: Well 1-3; for OD490 Mean: mean of 3 wells
Procedure, shortened: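 Steps: plate 1000 cells per well; incubate 24 h; add compound (final 0.5 to 100 µM) or 0.025% DMSO blank for 24 h; add MTS reagent, hold 2 h at 37 °C in 5% CO2; read A490; fit percent viability against concentration by non-linear regression to obtain IC50.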

In the case of `CCOC(=O)C1=C(C)NC(=S)NC1c1cccc(O)c1` (stereo not shown) [Monastrol, monastrol, reference compound], the “OD490 values, Mean” value (50μM, first assay) is reported as 1.3431, the “OD490 values, Well 1” value (50μM, first assay) is reported as 1.3844 and the “OD490 values, Well 2” value (50μM, first assay) is reported as 1.2943. The “OD490 values, Well 3” value (50μM, first assay) was 1.3505, the “OD490 values, Mean” value (50μM, second assay) was 1.3490 and the “OD490 values, Well 1” value (50μM, second assay) was 1.3355. The “OD490 values, Well 2” value (50μM, second assay) was 1.2894, the “OD490 values, Well 3” value (50μM, second assay) was 1.4221 and the “OD490 values, Mean” value (50μM, third assay) was 1.5704. For the same molecule, the “OD490 values, Well 1” value (50μM, third assay) was 1.5524, the “OD490 values, Well 2” value (50μM, third assay) was 1.4714 and the “OD490 values, Well 3” value (50μM, third assay) was 1.6874. For the same molecule, the “OD490 values, Mean” value (100μM, first assay) was 1.0251, the “OD490 values, Well 1” value (100μM, first assay) was 1.0639 and the “OD490 values, Well 2” value (100μM, first assay) was 1.0037. For the same molecule, the “OD490 values, Well 3” value (100μM, first assay) was 1.0076, the “OD490 values, Mean” value (100μM, second assay) was 1.2469 and the “OD490 values, Well 1” value (100μM, second assay) was 1.2354. The “OD490 values, Well 2” value (100μM, second assay) was 1.2789, the “OD490 values, Well 3” value (100μM, second assay) was 1.2265 and the “OD490 values, Mean” value (100μM, third assay) was 1.4401. The “OD490 values, Well 1” value (100μM, third assay) was 1.4541, the “OD490 values, Well 2” value (100μM, third assay) was 1.4710 and the “OD490 values, Well 3” value (100μM, third assay) was 1.3952. The “OD490, single wells” value (1μM, first assay) was 1.2759 and 1.1464 and 1.2212, the “OD490 Mean” value (1μM, first assay) was 1.2145 and the “OD490, single wells” value (1μM, second assay) was 1.3847 and 1.2145 and 1.3654. The “OD490 Mean” value (1μM, second assay) was 1.3215, the “OD490, single wells” value (1μM, third assay) was 1.5474 and 1.5368 and 1.4987 and the “OD490 Mean” value (1μM, third assay) was 1.5276. The “OD490, single wells” value (1.5μM, first assay) was 1.1568 and 1.0812 and 1.2095, the “OD490 Mean” value (1.5μM, first assay) was 1.1492 and the “OD490, single wells” value (1.5μM, second assay) was 1.2478 and 1.3254 and 1.2897. The “OD490 Mean” value (1.5μM, second assay) was 1.2876, the “OD490, single wells” value (1.5μM, third assay) was 1.5823 and 1.5874 and 1.5332 and the “OD490 Mean” value (1.5μM, third assay) was 1.5676. For the same molecule, the “OD490, single wells” value (10μM, first assay) was 1.1741 and 1.1023 and 1.0651, the “OD490 Mean” value (10μM, first assay) was 1.1138 and the “OD490, single wells” value (10μM, second assay) was 1.3582 and 1.6874 and 1.3354. The “OD490 Mean” value (10μM, second assay) was 1.4603, the “OD490, single wells” value (10μM, third assay) was 1.4784 and 1.4585 and 1.6874 and the “OD490 Mean” value (10μM, third assay) was 1.5414. For the same molecule, the “OD490, single wells” value (25μM, first assay) was 1.2192 and 1.1415 and 1.0377, the “OD490 Mean” value (25μM, first assay) was 1.1328 and the “OD490, single wells” value (25μM, second assay) was 1.2214 and 1.3652. The “OD490 Mean” value (25μM, second assay) was 1.3173, the “OD490, single wells” value (25μM, third assay) was 1.6324 and 1.5241 and 1.7241 and the “OD490 Mean” value (25μM, third assay) was 1.6269. For the same molecule, the IC50 (Mus musculus, L929, MTS assay, 24 h exposure, ordinary fibroblast, not cancer cells) was over 150 µM.

From article PMC8037182, “Solvothermal Synthesis of Multiple Dihydropyrimidinones at a Time as Inhibitors of Eg5” (Molecules, 2021)
